From patent US10167507B2, “Metabolic diseases-related odorant receptor genes and use thereof” (INDUSTRY-ACADEMIC COOPERATION FOUNDATION, YONSEI UNIVERSITY, priority 2010, dated 2019)

Tests used:
[1] = system: olfactory receptors in liver tissue; test: OligoDNA microarray, liver tissue of HFD mice fed odor components; format: in vivo, mouse
Description: (§1) The obesity-inducing control diet used in the test was high-fat diet (HFD: 40% fat calorie, 17 g lard+3% corn oil/100 g diet). Diets supplemented with an odor component had the same composition as HFD, except that each of various types of odor components (indol-3-carbinol, oleuropein, cedryl acetate, α-cedrene and piperine) having anti-obesity efficacy was contained in 0.02-0.05% concentration. Indo)-3-carbinol, oleuropein, cedryl acetate, a-cedrene and piperine were purchased from Sigma-Aldrich.
(§2) After adding Trizol agent to visceral fat or liver tissue, the mixture was homogenized and centrifuged at 12,000×g for 10 min at 4° C. The supernatant was transferred to a new tube to remove fat layer. Then, 200 μl of chloroform was added to the tube, followed by vortexing. The same procedure was repeated twice and then the supernatant was transferred to a new tube, followed by addition of isopropanol and the supernatant at 1:1 ratio. The mixture was vigorously shaken 10 times and then incubated for 10 min at room temperature, followed by centrifugation at 12,000×g for 10 min at 4° C. to remove the supernatant. After adding 1 mL of 70% ethanol to the remaining pellet, it was centrifuged at 7,500×g for 5 min at 4° C. After removing the ethanol, the RNA pellet contained in the tube was dried for 5 min at 4° C. and dissolved in nuclease-free water. The RNA sample concentration was measured at a wavelength of 260 nm and 280 nm using a UV/VIS spectrophotometer (Beckman coulter, DU730) and the integrity of RNA sample was verified by agarose gel electrophoresis.
(§3) DNA microarry analysis using RNAs of visceral fat and liver tissue was conducted by GENOCHECK (CO., LTD.). RNA samples were pooled from 10 mice in each experimental group and subjected to microarray experiments in triplicate for the test of reproducibility. NimbleGen Mouse Whole Oligo 12-plex chip used in this experiment was prepared by triplicating 42,576 genes using Mouse Genome Build 8 as database. In NimbleGen mouse Whole Oligo 12-plex chip, 137,090 spots excluded control group gene were spotted by 16 μm×16 μm size in 17.4 mm×13 mm size. 42,576 oligo included […] genes which are known their functions and 5,431 transcripts and EST sequences which are unknown their functions. 10-50 μg of total RNA was added in oligo-dT primer, reverse transcriptase, dNTP, Cy3-dUTP and Cy5-dUTP, and reverse-transcripted according to the kit manufacturer's recommendations. The resultant was purified using cartridge, dried and dissolved in hybridization buffer solution (30 μL). The microarray was placed in hybridization cassette, heated at 95-100° C. for 5 min, mixed independently to each of RNA labeled with Cy3 and Cy5, and hybridized at 45° C. for 18 hrs. The slide was washed twice in solution containing 1×SSC and 0.1% SDS for 5 min, washed in 1×SSC for 5 min and dried to analyze.
(§4) The profile for olfactory receptors in which the expression was regulated by more than 2-fold change due to intake of odor components at each tissue was shown in Tables 5. As a result, it was determined that various types of odor components having anti-obesity efficacy regulated a plurality of olfactory receptors in peripheral tissues.

[2] = system: HSL (hormone sensitive lipase); test: Western blotting, protein phosphorylation of HSL; format: in vivo, mouse
Protocol: (§6) A certain amount of visceral fat or liver tissues in mortar was homogenized with liquid nitrogen and cell lysis buffer. The mixture was transferred to a new tube, followed by vortexing. After centrifugation at 13,000×g for 20 min at 4° C., the middle layer of the tube was obtained and proteins were quantified by Bradford method. 50 μg of protein was electrophorized to SDS polyacrylamide gel, followed by electroblotting to PVDF hyper film. The protein was reacted using an appropriate antibody for the protein and detected by ECL, whereby insulin resistance, adipocyte differentiation, lipid metabolism or energy consumption-related mechanism of phytochemical components was investigated in the protein level.
(§7) In order to verify this, protein phosphorylations of HSL (hormone sensitive lipase), CREB (cAMP-responsive element binding protein) and AKT (v-akt murine thymoma viral oncogene) were evaluated by western blotting analysis.

[3] = system: CREB (cAMP-responsive element binding protein); test: Western blotting, protein phosphorylation of CREB; format: in vivo, mouse
Protocol: as §6, §7

[4] = system: obesity and metabolic diseases-related genes in liver tissue; test: RT-PCR of obesity and metabolic diseases-related genes, liver tissue; format: in vivo, mouse; settings: odor component-supplemented group to the HFD control group
Protocol: (§5) After adding 1 mL of Trizol agent (Invitrogen, USA) per 0.1 g of visceral fat or liver tissues, the mixture was homogenized and centrifuged at 12,000×g for 10 min at 4° C. The supernatant was transferred to a new tube and 200 μl of chloroform was added to the tube, followed by vortexing. The same procedure was repeated twice and then the supernatant was transferred to a new tube, followed by addition of isopropanol and the supernatant at 1:1 ratio. The mixture was vigorously shaken 10 times and then incubated for 10 min at room temperature, followed by centrifugation at 12,000×g for 10 min at 4° C. to remove the supernatant. After adding 1 mL of 70% ethanol to the remaining pellet, it was centrifuged at 7,500×g for 5 min at 4° C. After removing the ethanol, the RNA pellet contained in the tube was dried for 5 min at 4° C. and dissolved in nuclease-free water. The RNA sample concentration was measured at a wavelength of 260 nm and 280 nm using a UV/VIS spectrophotometer (Beckman coulter, DU730) and the integrity of RNA sample was verified by agarose gel electrophoresis. The RNA sample obtained from the visceral fat or liver tissues was trasnscribed using oligo dT primer and reverse transcriptase (GIBCO BRL, Gaithersburg, Md., USA) to synthesize cDNA. The PCR amplification was performed using the cDNA as templates and primers complementary to cDNA [NT] flanking sequence. 1 μl of the amplified products were resolved on agarose gel electrophoresis to verify DNA band.

[5] = system: obesity and metabolic diseases-related genes in visceral fat tissue; test: RT-PCR of obesity and metabolic diseases-related genes, visceral fat tissue; format: in vivo, mouse; settings: odor component-supplemented group to the HFD control group
Protocol: as §5

[6] = system: olfactory receptors in visceral fat tissue; test: OligoDNA microarray, visceral fat tissue of HFD mice fed odor components; format: in vivo, mouse
Protocol: DNA microarry analysis using RNAs of visceral fat and liver tissue was conducted by GENOCHECK (CO., LTD.). RNA samples were pooled from 10 mice in each experimental group and subjected to microarray experiments in triplicate for the test of reproducibility. NimbleGen Mouse Whole Oligo 12-plex chip used in this experiment was prepared by triplicating 42,576 genes using Mouse Genome Build 8 as database. In NimbleGen mouse Whole Oligo 12-plex chip, 137,090 spots excluded control group gene were spotted by 16 μm×16 μm size in 17.4 mm×13 mm size. 42,576 oligo included 137,145 genes which are known their functions and 5,431 transcripts and EST sequences which are unknown their functions. 10-50 μg of total RNA was added in oligo-dT primer, reverse transcriptase, dNTP, Cy3-dUTP and Cy5-dUTP, and reverse-transcripted according to the kit manufacturer's recommendations. The resultant was purified using cartridge, dried and dissolved in hybridization buffer solution (30 μL). The microarray was placed in hybridization cassette, heated at 95-100° C. for 5 min, mixed independently to each of RNA labeled with Cy3 and Cy5, and hybridized at 45° C. for 18 hrs. The slide was washed twice in solution containing 1×SSC and 0.1% SDS for 5 min, washed in 1×SSC for 5 min and dried to analyze.

[7] = system: AKT (v-akt murine thymoma viral oncogene); test: Western blotting, protein phosphorylation of AKT; format: in vivo, mouse
Protocol: as §6, §7

[8] = system: olfactory receptors in visceral fat and liver tissues; test: OligoDNA microarray, visceral fat and liver tissues of HFD mice fed odor components (tissue not separated in text); format: in vivo; settings: supplemented to mouse fed high-fat diet for 10 weeks
Description: as §1, §2, §3, §4

[9] = supplemented to HFD-fed mouse 10 weeks
[10] = odor component-supplemented group to the HFD control group
[11] = western blotting, compared to the HFD control group

SMILES: OCc1c[nH]c2ccccc12 [indol-3-carbinol]
- expression of olfactory receptor 1045 [1]: decreased
- Olfr290 expression fold change to HFD group [1, 9]: 2.11
- Olfr1045 expression fold change to HFD group [1, 9]: 0.45
- HSL phosphorylation, increase (change rate) [2, 10]: 31% increase ^a)
- phosphorylation of HSL [2, 11]: significantly increased
- CREB phosphorylation, increase (change rate) [3, 10]: 45% increase
- phosphorylation of CREB [3, 11]: significantly increased
- C/EBPα gene expression, decrease (change rate) [4]: 25% decrease
- CPT1 gene expression, increase (change rate) [4]: 33% increase^
- FAS gene expression, decrease (change rate) [4]: 27% decrease
- IL-6 gene expression, decrease (change rate) [4]: 45% decrease
- PPARγ2 gene expression, decrease (change rate) [4]: 36% decrease
- TNFα gene expression, decrease (change rate) [4]: 33% decrease
- aP2 gene expression, decrease (change rate) [4]: 29% decrease
- C/EBPα gene expression, decrease (change rate) [5]: 11% decrease^a)
- CPT1 gene expression, increase (change rate) [5]: 25% increase^
- FAS gene expression, decrease (change rate) [5]: 56% decrease
- IL-6 gene expression, decrease (change rate) [5]: 76% decrease
- PGC1α gene expression, increase (change rate) [5]: 120% increase ^
- PPARγ2 gene expression, decrease (change rate) [5]: 20% decrease
- SIRT1 gene expression, increase (change rate) [5]: 45% increase^
- TNFα gene expression, decrease (change rate) [5]: 23% decrease
- UCP1 gene expression, increase (change rate) [5]: 210% increase ^
- UCP3 gene expression, increase (change rate) [5]: 72% increase^
- aP2 gene expression, decrease (change rate) [5]: 44% decrease
- expression of olfactory receptor 380 [6]: increased
- expression of olfactory receptor 1165 [6]: decreased
- Olfr380 expression fold change to HFD group [6, 9]: 2.2
- Olfr1165 expression fold change to HFD group [6, 9]: 0.39
- Olfr1462 expression fold change to HFD group [6, 9]: 2.26
- AKT phosphorylation, increase (change rate) [7, 10]: 40% increase
- phosphorylation of AKT [7, 11]: significantly increased
- expression of olfactory receptor 16 decreased [8]: more than 2 fold change
- expression of olfactory receptor 116 increased [8]: more than 2 fold change
- expression of olfactory receptor 178 increased [8]: more than 2 fold change
- expression of olfactory receptor 196 decreased [8]: more than 2 fold change
- expression of olfactory receptor 259 decreased [8]: more than 2 fold change
- expression of olfactory receptor 290 increased [8]: more than 2 fold change
- expression of olfactory receptor 380 increased [8]: more than 2 fold change
- expression of olfactory receptor 466 decreased [8]: more than 2 fold change
- expression of olfactory receptor 686 decreased [8]: more than 2 fold change
- expression of olfactory receptor 909 increased [8]: more than 2 fold change
- expression of olfactory receptor 972 decreased [8]: more than 2 fold change
- expression of olfactory receptor 1045 decreased [8]: more than 2 fold change
- expression of olfactory receptor 1093 decreased [8]: more than 2 fold change
- expression of olfactory receptor 1153 increased [8]: more than 2 fold change
- expression of olfactory receptor 1165 decreased [8]: more than 2 fold change
- expression of olfactory receptor 1216 decreased [8]: more than 2 fold change
- expression of olfactory receptor 1329 decreased [8]: more than 2 fold change
- expression of olfactory receptor 1337 decreased [8]: more than 2 fold change
- expression of olfactory receptor 1462 increased [8]: more than 2 fold change
